Measured values reported in ChEMBL document CHEMBL4371002 (J Med Chem, 2018).

molecular target: Procathepsin L (Homo sapiens, UniProt P07711)
Sequence (P07711 whole entry): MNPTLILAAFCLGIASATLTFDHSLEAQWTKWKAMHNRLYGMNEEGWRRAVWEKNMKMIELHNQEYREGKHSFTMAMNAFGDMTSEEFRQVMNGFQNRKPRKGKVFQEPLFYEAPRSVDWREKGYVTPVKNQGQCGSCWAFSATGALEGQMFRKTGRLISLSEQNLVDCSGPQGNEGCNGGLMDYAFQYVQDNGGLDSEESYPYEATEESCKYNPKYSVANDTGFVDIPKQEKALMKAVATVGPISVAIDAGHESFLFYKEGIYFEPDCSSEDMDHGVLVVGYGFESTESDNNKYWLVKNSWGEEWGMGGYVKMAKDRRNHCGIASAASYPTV

SMILES | Ki [nM]
N#Cc1nc(N2CCOCC2)nc(N(Cc2ccc(F)cc2F)C2CCCC2)n1 | 126
N#Cc1nc(N2CCOCC2)nc(N(Cc2cccnc2)C2CCCC2)n1 | 100
N#Cc1nc(N2CCOCC2)nc(N(Cc2ncccn2)C2CCCC2)n1 | 398
N#Cc1nc(N2CCOCC2)nc(N(Cc2ccncn2)C2CCCC2)n1 | 251
N#Cc1nc(N2CCOCC2)nc(N(Cc2ccc(F)cc2)C2CCCC2)n1 | 501
N#Cc1nc(N2CCOCC2)nc(N(Cc2cccc(F)c2)C2CCCC2)n1 | 200
N#Cc1nc(N2CCOCC2)nc(N(Cc2ccncc2)C2CCCC2)n1 | 158

molecular target: T1, 5-hydroxytryptamine receptor 1A (Homo sapiens, UniProt P08908); assay type: functional, cell-based, CHO
T1 sequence (P08908 whole entry): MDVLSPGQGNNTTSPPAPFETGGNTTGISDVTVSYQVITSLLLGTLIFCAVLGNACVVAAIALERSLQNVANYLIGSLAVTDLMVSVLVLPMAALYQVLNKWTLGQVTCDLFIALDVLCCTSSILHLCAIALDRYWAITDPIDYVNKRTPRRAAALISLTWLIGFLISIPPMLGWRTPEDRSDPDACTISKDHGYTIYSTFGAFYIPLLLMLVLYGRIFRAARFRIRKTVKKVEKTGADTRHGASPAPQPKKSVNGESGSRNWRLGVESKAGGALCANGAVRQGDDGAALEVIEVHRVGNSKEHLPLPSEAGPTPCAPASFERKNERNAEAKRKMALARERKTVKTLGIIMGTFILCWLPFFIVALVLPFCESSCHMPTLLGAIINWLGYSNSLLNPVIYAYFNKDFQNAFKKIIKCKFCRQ

SMILES | IC50 [nM]
c1ccc2c(CCCCN3CCN(c4ccc5c(c4)OCCO5)CC3)c[nH]c2c1 | 8
Fc1ccc2[nH]cc(CCCCN3CCN(c4ccc5c(c4)OCCO5)CC3)c2c1 | 5
NC(=O)c1cc2cc(N3CCN(CCCCc4c[nH]c5ccc(F)cc45)CC3)ccc2o1 | 3
Clc1ccc2[nH]cc(CCCCN3CCN(c4ccc5c(c4)OCCO5)CC3)c2c1 | 40
N#Cc1ccc2[nH]cc(CCCCN3CCN(c4ccc5c(c4)OCO5)CC3)c2c1 | 0.7
Fc1ccc2[nH]cc(CCCCN3CCN(c4ccc5c(c4)OCO5)CC3)c2c1 | 4
N#Cc1ccc2[nH]cc(CCCCN3CCN(c4ccc5c(c4)OCCO5)CC3)c2c1 | 1

molecular target: D(2) dopamine receptor (Homo sapiens) (UniProt P14416)
Sequence (P14416 whole entry): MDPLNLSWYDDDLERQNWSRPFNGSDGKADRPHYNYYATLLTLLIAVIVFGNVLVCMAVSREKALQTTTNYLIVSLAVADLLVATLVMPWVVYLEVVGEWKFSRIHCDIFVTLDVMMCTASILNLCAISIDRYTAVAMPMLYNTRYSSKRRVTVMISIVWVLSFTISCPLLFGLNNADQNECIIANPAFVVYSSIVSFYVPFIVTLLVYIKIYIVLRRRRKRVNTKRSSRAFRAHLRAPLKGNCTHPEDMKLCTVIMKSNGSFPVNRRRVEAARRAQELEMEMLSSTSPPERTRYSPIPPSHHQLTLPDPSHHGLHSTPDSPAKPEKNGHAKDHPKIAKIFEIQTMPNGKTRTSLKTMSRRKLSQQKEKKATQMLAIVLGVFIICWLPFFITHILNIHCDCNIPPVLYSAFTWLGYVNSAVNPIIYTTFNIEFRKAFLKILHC

KiH [nM] | SMILES
9.8 | c1ccc(CNCCOc2cccc3[nH]cnc23)cc1
5.75 | FC(F)(F)c1nc2c3c(ccc2[nH]1)CCC(CNCc1ccccc1)O3 (stereo unspecified)
0.18 | FC(F)(F)c1nc2c(OCCNCc3ccccc3)cccc2[nH]1
0.14 | Oc1nc2c3c(ccc2[nH]1)CCC(CNCc1ccccc1)O3 (stereo unspecified)
0.37 | O=C1Cc2c(ccc3c2OC(CNCc2ccccc2)CC3)N1 (stereo unspecified)
4.4 | Cc1nc2c(OCCNCc3ccccc3)cccc2[nH]1
0.18 | Oc1nc2c(OCCNCc3ccccc3)cccc2[nH]1
